The results in this text go back to publication PMC3632601, “Polyacetylenes from Notopterygium incisum–New Selective Partial Agonists of Peroxisome Proliferator-Activated Receptor-Gamma” (PLoS ONE, 2013).

The target of test [1] is T1, human PPARα (Homo sapiens, UniProt Q07869).
T1 construct: expressed in transfected cells; host or cells: HEK-293
T1 sequence (Q07869 1-468): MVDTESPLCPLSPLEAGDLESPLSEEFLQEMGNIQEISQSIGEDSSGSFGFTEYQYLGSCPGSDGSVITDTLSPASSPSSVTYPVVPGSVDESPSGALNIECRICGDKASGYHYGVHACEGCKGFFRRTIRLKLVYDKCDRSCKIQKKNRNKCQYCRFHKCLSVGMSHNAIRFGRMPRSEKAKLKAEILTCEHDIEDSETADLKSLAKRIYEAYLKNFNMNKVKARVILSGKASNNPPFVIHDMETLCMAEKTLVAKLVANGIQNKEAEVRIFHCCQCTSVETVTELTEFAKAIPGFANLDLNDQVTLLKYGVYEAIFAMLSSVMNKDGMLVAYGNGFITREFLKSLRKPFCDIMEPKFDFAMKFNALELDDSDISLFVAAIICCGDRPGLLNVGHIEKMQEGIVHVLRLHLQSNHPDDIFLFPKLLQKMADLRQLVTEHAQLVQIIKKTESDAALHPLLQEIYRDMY
As to the kind of experiment: PPARα luciferase reporter gene transactivation in transfected HEK-293 cells. In kind it is cell-based. As to conditions: HEK-293, tk-PPREx3-luc reporter, 18 h, 0.1–30 µM; n.d. = not detected up to 30 µM; read-out: PPARα activation EC50. The procedure:
(§1) HEK-293 cells (ATCC, USA) were cultured in DMEM with phenol red, supplemented with 100 U/ml benzylpenicillin, 100 µg/ml streptomycin, 2 mM L-glutamine, and 10% FBS. Cells were maintained in 75 cm^2 flasks containing 10 ml medium at 37°C and 5% CO2. The cells were seeded in 10 cm dishes at a density of 6 × 10^6 cells/dish, incubated for 18 h, and transfected by the calcium phosphate precipitation method with 4 µg of the reporter plasmid (tk-PPREx3-luc), 4 µg from the respective PPAR subtype expression plasmid, and 2 µg green fluorescent protein plasmid (pEGFP-N1, Clontech, Mountain View, CA) as internal control. After 6 h, the transfected cells were harvested and re-seeded (5 × 10^4 cells/well) in 96-well plates containing DMEM without phenol red, supplemented with 100 U/ml benzylpenicillin, 100 µg/ml streptomycin, 2 mM L-glutamine, and 5% charcoal-stripped FBS. The cells were further treated with the indicated extracts or compounds or the solvent vehicle and incubated for 18 h. The medium was then discarded and the cells were lysed with a reporter lysis buffer (E3971, Promega, Madison, USA). Luciferase activity of the cell lysates was evaluated using a GeniosPro plate reader (Tecan, Grödig, Austria). The luminescence signals obtained from the luciferase activity measurements were normalized to the EGFP-derived fluorescence, to account for differences in the transfection efficiency or cell number.

For test [2], the target named is T2, human PPARβ/δ (Homo sapiens, UniProt Q03181).
T2 construct: expressed in transfected cells; host or cells: HEK-293
T2 sequence (Q03181 1-441): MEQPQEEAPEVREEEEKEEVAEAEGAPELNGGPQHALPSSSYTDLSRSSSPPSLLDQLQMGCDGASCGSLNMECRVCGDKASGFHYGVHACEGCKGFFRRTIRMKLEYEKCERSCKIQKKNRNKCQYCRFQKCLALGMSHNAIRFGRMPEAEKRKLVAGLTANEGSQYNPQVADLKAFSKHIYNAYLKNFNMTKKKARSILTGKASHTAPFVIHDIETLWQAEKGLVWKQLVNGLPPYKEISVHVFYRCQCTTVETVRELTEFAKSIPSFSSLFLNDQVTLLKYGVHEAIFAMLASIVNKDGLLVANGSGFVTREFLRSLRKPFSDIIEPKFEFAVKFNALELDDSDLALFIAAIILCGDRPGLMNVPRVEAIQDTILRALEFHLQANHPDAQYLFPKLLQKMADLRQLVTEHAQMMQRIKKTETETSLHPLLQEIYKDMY
In words: PPARβ/δ luciferase reporter gene transactivation in transfected HEK-293 cells. The format is cell-based. The settings on record: HEK-293, tk-PPREx3-luc reporter, 18 h, 0.1–30 µM; n.d. = not detected up to 30 µM; read-out: PPARβ/δ activation EC50. The procedure:
as §1
A general note: In a reporter assay the amount or activity of a reporter protein is the signal.

Test [3] deals with T3, human PPARγ (Homo sapiens, UniProt P37231).
T3 sequence (P37231 1-477 isoform P37231-2): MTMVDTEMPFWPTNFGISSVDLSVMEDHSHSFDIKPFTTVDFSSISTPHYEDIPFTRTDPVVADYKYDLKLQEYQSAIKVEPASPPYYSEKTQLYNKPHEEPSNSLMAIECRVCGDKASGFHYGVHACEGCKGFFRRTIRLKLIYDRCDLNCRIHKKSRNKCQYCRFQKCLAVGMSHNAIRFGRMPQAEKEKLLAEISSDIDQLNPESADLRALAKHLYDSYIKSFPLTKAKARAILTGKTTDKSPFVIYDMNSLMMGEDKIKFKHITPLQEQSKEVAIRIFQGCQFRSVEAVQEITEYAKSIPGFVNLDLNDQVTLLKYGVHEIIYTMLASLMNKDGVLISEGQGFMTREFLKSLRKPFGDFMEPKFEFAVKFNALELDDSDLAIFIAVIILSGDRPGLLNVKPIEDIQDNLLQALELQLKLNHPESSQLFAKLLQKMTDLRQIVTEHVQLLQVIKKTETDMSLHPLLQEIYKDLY
As to the kind of experiment: PPARγ luciferase reporter gene transactivation in transfected HEK-293 cells. As to conditions: for PPARγ activation maximal fold activation: HEK-293, 18 h, fold induction above vehicle control (DMSO 0.1%).
Procedure: HEK-293 cells (ATCC, USA) were cultured in DMEM with phenol red, supplemented with 100 U/ml benzylpenicillin, 100 µg/ml streptomycin, 2 mM L-glutamine, and 10% FBS. Cells were maintained in 75 cm^2 flasks containing 10 ml medium at 37°C and 5% CO2. The cells were seeded in 10 cm dishes at a density of 6 × 10^6 cells/dish, incubated for 18 h, and transfected by the calcium phosphate precipitation method [31] with 4 µg of the reporter plasmid (tk-PPREx3-luc), 4 µg from the respective PPAR subtype expression plasmid, and 2 µg green fluorescent protein plasmid (pEGFP-N1, Clontech, Mountain View, CA) as internal control. After 6 h, the transfected cells were harvested and re-seeded (5 × 10^4 cells/well) in 96-well plates containing DMEM without phenol red, supplemented with 100 U/ml benzylpenicillin, 100 µg/ml streptomycin, 2 mM L-glutamine, and 5% charcoal-stripped FBS. The cells were further treated with the indicated extracts or compounds or the solvent vehicle and incubated for 18 h. The medium was then discarded and the cells were lysed with a reporter lysis buffer (E3971, Promega, Madison, USA). Luciferase activity of the cell lysates was evaluated using a GeniosPro plate reader (Tecan, Grödig, Austria). The luminescence signals obtained from the luciferase activity measurements were normalized to the EGFP-derived fluorescence, to account for differences in the transfection efficiency or cell number.
(A) HEK-293 cells were transiently co-transfected with a plasmid encoding full-length human PPARγ, a reporter plasmid containing PPRE coupled to a luciferase reporter and an EGFP plasmid as internal control. […] The data shown are means ± SD of three independent experiments each performed in quadruplet. ***p<0.001, *p<0.05 (compared to the solvent vehicle group; ANOVA/Bonferroni).
The data points shown are means ± SEM of three independent experiments each performed in quadruplet. (B) Cells were transfected and treated as indicated above. […] (C) The cells were prepared as indicated above and treated for 18 h with different concentrations of falcarindiol, always in the presence of 1 µM pioglitazone. The data shown are means ± SD of three independent experiments each performed in quadruplet.

For test [4], the target named is T4, human PPARγ ligand-binding domain (LBD) (Homo sapiens, UniProt P37231).
T4 construct: purchased Invitrogen
T4 sequence (P37231 238-503 limits assumed): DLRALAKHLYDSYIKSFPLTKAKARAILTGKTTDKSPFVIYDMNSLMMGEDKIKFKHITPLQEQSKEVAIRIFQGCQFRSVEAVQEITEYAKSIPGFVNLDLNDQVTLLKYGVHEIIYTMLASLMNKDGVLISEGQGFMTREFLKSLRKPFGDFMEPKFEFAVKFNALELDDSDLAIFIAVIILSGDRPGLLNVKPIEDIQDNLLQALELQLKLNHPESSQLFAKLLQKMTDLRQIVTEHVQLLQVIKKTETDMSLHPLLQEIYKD
As to the kind of experiment: LanthaScreen TR-FRET PPARγ competitive binding assay. The settings on record: purified human PPARγ-LBD, 6 h incubation, Cheng-Prusoff from IC50.
Procedure: The LanthaScreen® time-resolved fluorescence resonance energy transfer (TR-FRET) PPARγ competitive binding assay (Invitrogen, Lofer, Austria) was performed according to the manufacturer’s protocol. The test compounds dissolved in DMSO or the blank solvent vehicle (DMSO) were incubated together with the human PPARγ ligand-binding domain (LBD) tagged with GST, a terbium-labeled anti-GST antibody, and a fluorescently labeled PPAR ligand (Fluormone Pan-PPAR Green, Invitrogen). In this assay, the fluorescently labeled ligand is binding to the human PPARγ LBD, which brings it in close spatial proximity to the terbium-labeled anti-GST antibody. Excitation of the terbium at 340 nm results in energy transfer (FRET) and partial excitation of the fluorescently labeled PPAR ligand, followed by emission at 520 nm. Test-compounds binding to the human PPARγ LBD are competing with the fluorescently labeled ligand and displacing it, resulting in a decrease of the FRET signal. […] All measurements were performed with a GeniosPro plate reader (Tecan, Grödig, Austria).
One-way analysis of variance (ANOVA) with Bonferroni post hoc test, or two-tailed paired t-test was used to determine statistical significance. […]

Test [5] deals with 3T3-L1 preadipocytes. In words: Adipogenicity: 3T3-L1 preadipocyte differentiation, Oil Red O staining. The format is cell-based. As to conditions: 10 µM, with 1 µg/ml insulin, compared with pioglitazone 10 µM; listed as falcarindiol. The procedure:
3T3-L1 preadipocytes (ATCC, USA) were propagated in DMEM supplemented with 10% calf serum. […]. The medium was renewed every two days until day 8. For an estimate of lipid accumulation, Oil Red O staining was performed. For this, cells were fixed in 10% formaldehyde for 1 h and stained with Oil Red O for 10 min. After washing off excessive dye, bound dye was solubilized with 100% isopropanol and photometrically quantified at 550 nm. For better appreciation of the adipogenic potential of the investigated PPARγ agonists, a subset of preadipocytes was treated according to a common standard differentiation protocol (2 days in DMEM/10% FBS/500 µM IBMX/500 nM dexamethasone and 1 µg/mL insulin (MDI), followed by 2 days in DMEM/10% FBS/1 µg/ml insulin and 6 days in DMEM/10% FBS).
Figure 4 Assessment of adipogenicity and glucose uptake-enhancing properties of falcarindiol. […]; containing 10% FBS, 500 µM IBMX, 500 nM dexamethasone, and 1 µg/ml insulin) as a positive control. For an estimate of accumulated lipids, and thus for the adipogenic potential of the test compounds, Oil Red O staining and photometric quantification at 550 nm was performed. […] (B) 3T3-L1 mature adipocytes were incubated with falcarindiol (10 µM) or solvent vehicle (0.1% DMSO) for 48 h and 2-deoxy-D-(1H^3)-glucose cellular uptake was determined for 10 min in the presence or absence (basal uptake) of insulin (500 pM). […]

Test [6] has as its system 3T3-L1 adipocytes. As to the kind of experiment: 2-Deoxy-D-(1H^3)-glucose uptake in differentiated 3T3-L1 adipocytes. In kind it is cell-based. As to conditions: 10 µM for 48 h, insulin 500 pM, vs vehicle, listed as falcarindiol. As for the experimental part:
Confluent 3T3-L1 preadipocytes (ATCC, USA) were differentiated (day 0) into mature adipocytes for 10 days (2 days in DMEM supplemented with 10% FBS, […], 1 µg/ml insulin and 500 nM dexamethasone followed by 2 days in DMEM/10% FBS/1 µg/ml insulin and 6 days in DMEM/10% FBS), and incubated with the test compounds (10 µM) or 0.1% DMSO as vehicle control for 48 h at 37°C. Before the experiment, cells were incubated for 4 h in DMEM/0.1% BSA followed by 1 h in KRH/BSA buffer (50 mM HEPES, 136 mM NaCl, 23.5 mM KCl, 1.25 mM MgSO4, 1.25 mM CaCl2 and 0.1% BSA). […] The glucose uptake rate was determined by liquid scintillation counting (Perkin Elmer, Waltham, MA, USA) of cell lysates (20 mM HEPES, 1% Igepal CA-630), and normalized to protein content assessed by the Bradford protein assay.
Figure 4 Assessment of adipogenicity and glucose uptake-enhancing properties of falcarindiol. […] For an estimate of accumulated lipids, and thus for the adipogenic potential of the test compounds, Oil Red O staining and photometric quantification at 550 nm was performed. […] (B) 3T3-L1 mature adipocytes were incubated with falcarindiol (10 µM) or solvent vehicle (0.1% DMSO) for 48 h and 2-deoxy-D-(1H^3)-glucose cellular uptake was determined for 10 min in the presence or absence (basal uptake) of insulin (500 pM). […]

“And” between values parts separate entries of the source, which are not always exact repeats. Equal entries are not always repeated. “Also recorded” adds a separate entry of the source.

Turning to `C=C[C@@H](O)C#CC#C[C@H](/C=C\CCCCCCC)OC(C)=O` [compound 1, 3R,8S,9Z-3-hydroxyheptadeca-1,9-diene-4,6-diyne-8-yl acetate], the EC50 was > 30 µM in test [1], > 30 µM in test [2] and 3.59 µM in test [3]. In test [3], the “PPARγ activation maximal fold activation” value was found to be 2.36 fold.
Usually Ki stands for the equilibrium dissociation constant of an inhibitor or competing ligand from its target. Low readings indicate higher affinity, high ones lower affinity. Take `C=C[C@@H](O)C#CC#C[C@@H](O)/C=C\CCCCCCC` [compound 2, 3R,8S,9Z-heptadeca-1,9-diene-4,6-diyne-3,8-diol]: the EC50 in test [1] was > 30 µM; in test [2], > 30 µM; in test [3], 3.29 µM. In test [4], the Ki is 3.07 µM and 3.1 µM. The “3T3-L1 adipocyte differentiation (lipid accumulation, Oil Red O)” value in test [5] was “induced 3T3-L1 preadipocyte differentiation; also recorded: induced the differentiation to adipocytes as expected, although to a smaller extent than pioglitazone”. Besides, the insulin-mediated glucose uptake result in test [6] is recorded as “significantly enhanced”. Moreover, the “PPARγ activation maximal fold activation” value in test [3] is 3.26 fold. Further, the “share of the stimulating effect of pioglitazone blocked by co-treatment” value in test [3] (co-treatment with 1 µM pioglitazone, 18 h, maximal block) is recorded as 70–80%. In addition, in test [3] (falcarindiol 10 µM, T0070907 1 µM), the “stimulating effect upon co-treatment with PPARγ antagonist T0070907” value was “blocked”.
Regarding `C=C[C@@H](O)C#CC#C[C@@H](O)C1OC1CCCCCCC` (stereo partly drawn) [compound 3, 1R,6R-1-(3-heptyloxiran-2-yl)octa-7-ene-2,4-diyne-1,6-diol], the figures for the EC50 in test [1], in test [2] and in test [3] were > 30 µM, > 30 µM and 2.03 µM, respectively. Further, the “PPARγ activation maximal fold activation” value in test [3] is 1.88 fold.
As for `C=C[C@@H](O)/C=C/C#C[C@@H](O)/C=C\CCCCCCC` [compound 4, 3R,4E,8S,9Z-heptadeca-1,4,9-triene-6-yne-3,8-diol], the EC50 in test [1] is > 30 µM; in test [2], > 30 µM; in test [3], 4.58 µM. Also, the “PPARγ activation maximal fold activation” value in test [3] was 2.29 fold.
Turning to `CCCCCCC/C=C\CC#CC#CCCCO` [compound 5, 9Z-heptadecene-4,6-diyne-1-ol], the EC50 in test [1] is > 30 µM; in test [2] it was > 30 µM; in test [3] it was 11.3 µM. Moreover, in test [3], the “PPARγ activation maximal fold activation” value is recorded as 1.92 fold.
`CCCCCCC/C=C\CC#CC#C/C=C\CO` [compound 6, 2Z,9Z-heptadecadiene-4,6-diyne-1-ol]: the EC50 in test [1] is > 30 µM; in test [2], > 30 µM; in test [3], 4.18 µM. In test [3], the “PPARγ activation maximal fold activation” value worked out at 1.73 fold.
